In patent publication US20240409558A1, “IRREVERSIBLE INHIBITORS OF KRAS” (BIOMEA FUSION, INC., priority 2021, published 2024) one finds IC50 data, which are given here for 18 compounds.

Structures are written as SMILES. Like-named read-outs stand apart in the source and are kept apart here. A value given as a limit tells only on which side of the number the result lay.

In this assay the test system is human KRAS G12C mutated cell line MIA PaCa-2. Put plainly: Inhibition of proliferation of MIA PaCa-2 cells (CellTiter-Glo, 7 day). The class given is cell-based. To be noted: 168 h. From the text:
The present example evaluates the ability of compounds provided herein to inhibit proliferation of KRAS mutant cells.
The proliferation inhibitory effect was investigated in the human KRAS G12C mutated cell line MIA PaCa-2 (Yunis et al., 1977, Int. J. Cancer 19(1):128-135; ATCC catalog no. CRL-1420). Cells were maintained in RPMI-1640 medium (ThermoFisher catalog no. 61870036) supplemented with 10% of Heat Inactivated FBS (ThermoFisher catalog no. A31605) and 1% Pen-Strep (ThermoFisher catalog no. 10378016) and cultured at 37° C. in a humidified incubator with 5% CO2. Cell lines were grown by adhering to culture flasks, and the cells were maintained in a range 70%-80% confluency.
ATP is present in all metabolically active cells and is considered as a marker for cell viability and proliferation. Metabolic cell activity was determined using the CellTiter-Glo kit (Promega catalog no. G7572), an ATP monitoring system based on the production of luminescence by the reaction of ATP with added UltraGlo® recombinant luciferase (Kawano et al., 2016, PLOS One, 8; 11(7):e0158888), according to the supplier's experimental recommendations. The assay was based on a 96 well plate format.
Test compounds were dissolved at 10 mM in DMSO (Sigma catalog no. D8418; purity >99.9%) and stored at −20° C. Eight concentrations of test compound were assessed in duplicate in an individual test occasion in parallel in the selected cell lines. MRTX-849 and AMG-510 were used as reference compounds and tested in duplicate at eight concentrations. 100% of proliferation is represented by the untreated cells (0.2% DMSO).
On the day of the experiment (TO), cells were detached with TrypLE (ThermoFisher catalog no. 12604054) and quantified using the Vi-CELL XR Cell Viability (Beckman Coulter) analyzer and diluted with fresh medium to obtain the cell density of about 1000 cells per 200 μL medium. 200 μL of cell suspension were added into wells in the 96 well plate.
After 2 hours from seeding cells, compounds were added using a D300e compound dispenser (Tecan Trading AG) at desired concentrations with shaking between each compound dispensed. Cell plates containing 200 μL/well were incubated at 37° C. in a humidified incubator with 5% CO2.
On day T3, 150 μL of growth media per well were removed from plates containing the samples, 150 uL fresh growth media were added to each well, and fresh compounds were added using a D300e compound dispenser (Tecan Trading AG) at desired concentrations with shaking between each compound dispensed. Cell plates containing 200 uL/well were incubated at 37° C. in a humidified incubator with 5% CO2. On day T7 plates containing the samples were equilibrated at room temperature for approximately 15 min, and then 40 μL/well of the Promega CellTiterGlo® reagent was added. Contents were mixed for 30 minutes on an orbital shaker to induce cell lysis. Luminescence was read using a Synergy Neo 2 (Agilent Technologies.
Data was expressed as % of inhibition compared to the 0.2% DMSO negative control, and is calculated as follows: % inhibition=100−[(RLU sample)×100/(RLU controls*)], where * indicates the average for 0.2% DMSO. […]
On the day of the experiment (TO), cells were detached with TrypLE (ThermoFisher catalog no. 12604054), quantified using the Vi-CELL XR Cell Viability (Beckman Coulter) analyzer and resuspended in fresh medium at a cell density of about 1000 cells per 200 μL medium. 200 μL of cell suspension were added to each well of a 96 well plate.
Two hours after seeding cells, compounds were added at desired concentrations using a D300e compound dispenser (Tecan Trading AG) with shaking after each compound addition. Assay plates were incubated at 37° C. in a humidified incubator with 5% CO2.
On day 3 (T3) 150 μL of medium from assay plates were removed. 150 μL fresh medium and compounds were added at desired concentrations using a D300e compound dispenser (Tecan Trading AG) with shaking after each compound addition. […]

Setting [1] is: Table 4, 7 day, mean, read-out: MIA PaCa-2 IC50 (μM) 7 day Mean.
[2] abbreviates: Table 3, 7 day, mean, read-out: MIA PaCa-2 IC50 (μM) 7 day Mean.

As usually defined, the IC50 is the concentration that inhibits the measured activity by half. With `C=CC(=O)N1[C@@H]2CC[C@H]1CN(c1nc(OC[C@@]34CCCN3C[C@H](F)C4)nc3c(F)c(-c4cc(O)cc(Cl)c4C4CC4)ccc13)C2` [Compound 1, 1-((1R,5S)-3-(7-(3-chloro-2-cyclopropyl-5-hydroxyphenyl)-8-fluoro-2-(((2R,7aS)-2-fluorotetrahydro-1H-pyrrolizin-7a(5H)-yl)methoxy)quinazolin-4-yl)-3,8-diazabicyclo[3.2.1]octan-8-yl)prop-2-en-1-one], the IC50 (Table 1, CellTiter-Glo luminescence read on day 7, read-out: MIA PaCa-2 IC50) was determined as 0.000742 µM.

Take `Oc1cc(Cl)c(C2CC2)c(-c2ccc3c(N4CCNCC45CC5)nc(OC[C@@]45CCCN4C[C@H](F)C5)nc3c2F)c1` [Compound 425, 3-chloro-4-cyclopropyl-5-[4-(4,7-diazaspiro[2.5]octan-4-yl)-8-fluoro-2-[[(2R,8S)-2-fluoro-1,2,3,5,6,7-hexahydropyrrolizin-8-yl]methoxy]quinazolin-7-y1]phenol]: the IC50 under setting [1] is 0.607 µM.

For the compound `Oc1cccc(Cl)c1-c1cc(OCC23CCCN2C[C@H](F)C3)c2c(N3CCNCC34CC4)nc(OC[C@@]34CCCN3C[C@H](F)C4)nc2c1` (stereo partly drawn) [Compound 420, 3-chloro-2-[4-(4,7-diazaspiro[2.5]octan-4-yl)-5-[[(2R)-2-fluoro-1,2,3,5,6,7-hexahydropyrrolizin-8-yl]methoxy]-2-[[(2R,8S)-2-fluoro-1,2,3,5,6,7-hexahydropyrrolizin-8-yl]methoxy]quinazolin-7-yl]phenol], the IC50 under setting [1] was more than 1 µM.

As for `Oc1cc(Cl)c(C2CC2)c(-c2ccc3c(N4CC5CCC(C4)N5)nc(OC[C@@]45CCCN4C[C@H](F)C5)nc3c2)c1` [Compound 428, 3-chloro-4-cyclopropyl-5-[4-(3,8-diazabicyclo[3.2.1]octan-3-y1)-2-[[(2R,8S)-2-fluoro-1,2,3,5,6,7-hexahydropyrrolizin-8-yl]methoxy]quinazolin-7-yl]phenol], the IC50 under setting [1] was more than 1 µM.

For the compound `C=CC(=O)N1C2CCC1CN(c1nc(OC[C@@]34CCCN3C[C@H](F)C4)nc3c(F)c(-c4cc(O)cc(Cl)c4C4CC4)ncc13)C2` [Compound 302, 1-[3-[7-(3-chloro-2-cyclopropyl-5-hydroxy-phenyl)-8-fluoro-2-[[(2R,8S)-2-fluoro-1,2,3,5,6,7-hexahydropyrrolizin-8-yl]methoxy]pyrido[4,3-d]pyrimidin-4-yl]-3,8-diazabicyclo[3.2.1]octan-8-yl]prop-2-en-1-one], the IC50 under setting [2] came out at 0.000287 µM.

For `N#C[C@H]1CNCCN1c1nc(OC[C@@]23CCCN2C[C@H](F)C3)nc2c(F)c(-c3cc(O)cc(Cl)c3C3CC3)ccc12` [Compound 415, (2R)-1-[7-(3-chloro-2-cyclopropyl-5-hydroxy-phenyl)-8-fluoro-2-[[(2R,8S)-2-fluoro-1,2,3,5,6,7-hexahydropyrrolizin-8-yl]methoxy]quinazolin-4-y1]piperazine-2-carbonitrile], the IC50 under setting [1] is more than 1 µM.

For `Oc1cc(Cl)c(C2CC2)c(-c2cc3nc(OC[C@@]45CCCN4C[C@H](F)C5)nc(N4CCNCC45CC5)c3cc2F)c1` [Compound 412, 3-chloro-4-cyclopropyl-5-[4-(4,7-diazaspiro[2.5]octan-4-yl)-6-fluoro-2-[[(2R,8S)-2-fluoro-1,2,3,5,6,7-hexahydropyrrolizin-8-yl]methoxy]quinazolin-7-yl]phenol], the IC50 under setting [1] was more than 1 µM.

For the compound `Oc1cc(Cl)c(C2CC2)c(-c2ccc3c(N4CCNC5(CC5)C4)nc(OC[C@@]45CCCN4C[C@H](F)C5)nc3c2F)c1` [Compound 409, 3-chloro-4-cyclopropyl-5-[4-(4,7-diazaspiro[2.5]octan-7-yl)-8-fluoro-2-[[(2R,8S)-2-fluoro-1,2,3,5,6,7-hexahydropyrrolizin-8-yl]methoxy]quinazolin-7-yl]phenol], the IC50 under setting [1] was more than 1 µM.

Turning to `C[C@@H]1CNCCN1c1nc(OC[C@@]23CCCN2C[C@H](F)C3)nc2cc(-c3c(O)cccc3C3CC3)c(F)cc12` [Compound 426], under setting [1], the IC50 was more than 1 µM.

Consider `C=CC(=O)N1C2CCC1CN(c1nc(OCC34CCCN3CCC4)nc3c(F)c(-c4cccc(Cl)c4C4CC4)ncc13)C2` [Compound 301, 1-[3-[7-(3-chloro-2-cyclopropyl-phenyl)-8-fluoro-2-(1,2,3,5,6,7-hexahydropyrrolizin-8-ylmethoxy)pyrido[4,3-d]pyrimidin-4-yl]-3,8-diazabicyclo[3.2.1]octan-8-yl]prop-2-en-1-one], for which the IC50 under setting [2] was determined as 0.16 µM.

For `C[C@@H]1CC(c2nc(OC[C@@]34CCCN3C[C@H](F)C4)nc3c(F)c(-c4cc(O)cc5ccc(F)c(F)c45)ncc23)CCN1` (stereo partly drawn) [Compound 440, 5,6-difluoro-4-[8-fluoro-2-[[(2R,8S)-2-fluoro-1,2,3,5,6,7-hexahydropyrrolizin-8-yl]methoxy]-4-[(2R)-2-methyl-4-piperidyl]pyrido[4,3-d]pyrimidin-7-yl]naphthalen-2-ol], under setting [1], the IC50 is 3.65 µM.

On to `C#Cc1c(F)ccc2cccc(-c3ncc4c(N5CC6CCC(C5)N6C(=O)C=C)nc(OCC56CCCN5CCC6)nc4c3F)c12` [Compound 303, 1-[3-[7-(8-ethynyl-7-fluoro-1-naphthyl)-8-fluoro-2-(1,2,3,5,6,7-hexahydropyrrolizin-8-ylmethoxy)pyrido[4,3-d]pyrimidin-4-yl]-3,8-diazabicyclo[3.2.1]octan-8-yl]prop-2-en-1-one], for which the IC50 under setting [2] turned out to be 0.0006 µM.

For the compound `C[C@@H]1CNCCN1c1nc(OC[C@@]23CCCN2C[C@H](F)C3)nc2cc(-c3c(O)cccc3C3CC3)cnc12` [Compound 413], the IC50 under setting [1] is more than 1 µM.

Turning to `Oc1cc(-c2ncc3c(C4CC5CCC(C4)N5)nc(OC[C@@]45CCCN4C[C@H](F)C5)nc3c2F)c2c(F)c(F)ccc2c1` (stereo partly drawn) [Compound 443, 4-[4-(8-azabicyclo[3.2.1]octan-3-yl)-8-fluoro-2-[[(2R,8S)-2-fluoro-1,2,3,5,6,7-hexahydropyrrolizin-8-yl]methoxy]pyrido[4,3-d]pyrimidin-7-y1]-5,6-difluoro-naphthalen-2-ol], the IC50 under setting [1] was more than 1 µM.

Regarding `Fc1cc2c(N3CCNC4(CC4)C3)nc(OC[C@@]34CCCN3C[C@H](F)C4)nc2cc1-c1cccc2cccc(Cl)c12` [Compound 421, 7-(8-chloro-1-naphthyl)-4-(4,7-diazaspiro[2.5]octan-7-y1)-6-fluoro-2-[[(2R,8S)-2-fluoro-1,2,3,5,6,7-hexahydropyrrolizin-8-yl]methoxy]quinazoline], the IC50 under setting [1] is more than 1 µM.

In the case of `CC1(c2nc(OC[C@@]34CCCN3C[C@H](F)C4)nc3c(F)c(-c4cc(O)cc5ccc(F)c(F)c45)ncc23)CCNCC1` [Compound 444], the IC50 under setting [1] worked out at 6.74 µM.

As for `N#CC1CNCCN1c1nc(OC[C@@]23CCCN2C[C@H](F)C3)nc2cc(-c3cc(O)cc(Cl)c3C3CC3)cnc12` (stereo partly drawn) [Compound 416, 1-[7-(3-chloro-2-cyclopropyl-5-hydroxy-phenyl)-2-[[(2R,8S)-2-fluoro-1,2,3,5,6,7-hexahydropyrrolizin-8-yl]methoxy]pyrido[3,2-d]pyrimidin-4-yl]piperazine-2-carbonitrile], the IC50 under setting [1] was more than 1 µM.

Take `C=CC(=O)N1C[C@H]2C[C@@H]1CN2c1nc(OC[C@@]23CCCN2C[C@H](F)C3)nc2cc(-c3cccc4cccc(Cl)c34)c(F)cc12` [Compound 322, 1-[(1R,4R)-5-[7-(8-chloro-1-naphthyl)-6-fluoro-2-[[(2R,8S)-2-fluoro-1,2,3,5,6,7-hexahydropyrrolizin-8-yl]methoxy]quinazolin-4-y1]-2,5-diazabicyclo[2.2.1]heptan-2-yl]prop-2-en-1-one]: the concentration for half-maximal inhibition (IC50) under setting [2] was more than 1 µM.
